Results from PubChem BioAssay (NCI).
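Values below derive from 48-hour exposures of cells grown in 96-well plates, with endpoints linearly interpolated between the two concentrations bracketing the appropriate inhibition level. GI50 marks 50% less growth. TGI: total growth inhibition.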

Columns and labels:
Assay in all cases: DTP human tumour cell line panel, 48 h
MCF7 breast = test system: MCF7 breast
RPMI-8226 leukemia = test system: RPMI-8226 leukemia
OVCAR-4 ovarian = test system: OVCAR-4 ovarian
NCI-H522 lung = test system: NCI-H522 lung
OVCAR-8 ovarian = test system: OVCAR-8 ovarian
OVCAR-3 ovarian = test system: OVCAR-3 ovarian
BT-549 breast = test system: BT-549 breast
SK-MEL-5 melanoma = test system: SK-MEL-5 melanoma
EKVX NSCLC = test system: EKVX NSCLC
SK-MEL-28 melanoma = test system: SK-MEL-28 melanoma
786-0 renal = test system: 786-0 renal
DU-145 prostate = test system: DU-145 prostate
HT29 colon = test system: HT29 colon
UACC-257 melanoma = test system: UACC-257 melanoma
HS 578T breast = test system: HS 578T breast
NCI-H23 lung = test system: NCI-H23 lung
T-47D breast = test system: T-47D breast
SK-MEL-2 melanoma = test system: SK-MEL-2 melanoma
HCC-2998 colon = test system: HCC-2998 colon
SF-295 CNS = test system: SF-295 CNS
A498 renal = test system: A498 renal
CAKI-1 renal = test system: CAKI-1 renal
SK-OV-3 ovarian = test system: SK-OV-3 ovarian
MOLT-4 leukemia = test system: MOLT-4 leukemia
OVCAR-5 ovarian = test system: OVCAR-5 ovarian
SF-268 CNS = test system: SF-268 CNS
CCRF-CEM leukemia = test system: CCRF-CEM leukemia
SNB-19 CNS = test system: SNB-19 CNS
HCT-15 colon = test system: HCT-15 colon
K-562 leukemia = test system: K-562 leukemia
HCT-116 colon = test system: HCT-116 colon
COLO 205 colon = test system: COLO 205 colon
SR leukemia = test system: SR leukemia
MDA-MB-435 = test system: MDA-MB-435
UACC-62 melanoma = test system: UACC-62 melanoma
TK-10 renal = test system: TK-10 renal
M14 melanoma = test system: M14 melanoma
HOP-62 NSCLC = test system: HOP-62 NSCLC
HL-60(TB) leukemia = test system: HL-60(TB) leukemia
LOX IMVI melanoma = test system: LOX IMVI melanoma
SF-539 CNS = test system: SF-539 CNS
MALME-3M melanoma = test system: MALME-3M melanoma
PC-3 prostate = test system: PC-3 prostate
IGROV1 ovarian = test system: IGROV1 ovarian
U251 CNS = test system: U251 CNS
UO-31 renal = test system: UO-31 renal
HOP-92 NSCLC = test system: HOP-92 NSCLC
SW-620 colon = test system: SW-620 colon
ACHN renal = test system: ACHN renal
SNB-75 CNS = test system: SNB-75 CNS
NCI-H226 lung = test system: NCI-H226 lung
NCI/ADR-RES ovarian = test system: NCI/ADR-RES ovarian
MDA-MB-231 breast = test system: MDA-MB-231 breast
SN12C renal = test system: SN12C renal
NCI-H460 lung = test system: NCI-H460 lung
A549 NSCLC = test system: A549 NSCLC
KM12 colon = test system: KM12 colon

With `CN1CCN(c2ccc(Nc3nc(NCCCNS(=O)(=O)c4ccc(F)cc4)c4sccc4n3)cc2)CC1` the GI50 (MCF7 breast) was 7.39 µM, the TGI (MCF7 breast) was 20.2 µM and the GI50 (RPMI-8226 leukemia) was 5.24 µM. For the same molecule, the TGI (RPMI-8226 leukemia) was 37.6 µM, the GI50 (OVCAR-4 ovarian) was 10.2 µM and the TGI (OVCAR-4 ovarian) was 38.8 µM. For the same molecule, the GI50 (NCI-H522 lung) was 13.3 µM, the TGI (NCI-H522 lung) was 27.5 µM and the GI50 (OVCAR-8 ovarian) was 14.9 µM. For the same molecule, the TGI (OVCAR-8 ovarian) was 42.8 µM, the GI50 (OVCAR-3 ovarian) was 17.8 µM and the TGI (OVCAR-3 ovarian) was 55.7 µM. It also gave a GI50 (BT-549 breast) of 13.9 µM, a TGI (BT-549 breast) of 31.4 µM and a GI50 (SK-MEL-5 melanoma) of 15.8 µM. For the same molecule, the TGI (SK-MEL-5 melanoma) was 29.2 µM, the GI50 (EKVX NSCLC) was 21 µM and the TGI (EKVX NSCLC) was 73.8 µM. It also gave a GI50 (SK-MEL-28 melanoma) of 13.1 µM, a TGI (SK-MEL-28 melanoma) of 25.8 µM and a GI50 (786-0 renal) of 15.6 µM. For the same molecule, the TGI (786-0 renal) was 34.4 µM, the GI50 (DU-145 prostate) was 17.4 µM and the TGI (DU-145 prostate) was 43 µM. It also gave a GI50 (HT29 colon) of 5.18 µM, a TGI (HT29 colon) of 25 µM and a GI50 (UACC-257 melanoma) of 15.1 µM. It also gave a TGI (UACC-257 melanoma) of 30.3 µM, a GI50 (HS 578T breast) of 4.92 µM and a TGI (HS 578T breast) of 25.4 µM. It also gave a GI50 (NCI-H23 lung) of 14.8 µM, a TGI (NCI-H23 lung) of 30.3 µM and a GI50 (T-47D breast) of 15 µM. For the same molecule, the TGI (T-47D breast) was 40.4 µM, the GI50 (SK-MEL-2 melanoma) was 15.5 µM and the TGI (SK-MEL-2 melanoma) was 29.7 µM. The GI50 (HCC-2998 colon) was 14.9 µM, the TGI (HCC-2998 colon) was 30.8 µM and the GI50 (SF-295 CNS) was 13.3 µM. For the same molecule, the TGI (SF-295 CNS) was 26.6 µM, the GI50 (A498 renal) was 16.1 µM and the TGI (A498 renal) was 32.4 µM. The GI50 (CAKI-1 renal) was 15.2 µM, the TGI (CAKI-1 renal) was 28.4 µM and the GI50 (SK-OV-3 ovarian) was 27 µM. It also gave a TGI (SK-OV-3 ovarian) of 78.4 µM, a GI50 (MOLT-4 leukemia) of 6.02 µM and a TGI (MOLT-4 leukemia) of 43.1 µM. The GI50 (OVCAR-5 ovarian) was 18.1 µM, the TGI (OVCAR-5 ovarian) was 55.9 µM and the GI50 (SF-268 CNS) was 12.8 µM. It also gave a TGI (SF-268 CNS) of 63.4 µM, a GI50 (CCRF-CEM leukemia) of 22.2 µM and a TGI (CCRF-CEM leukemia) of over 100 µM. It also gave a GI50 (SNB-19 CNS) of 23 µM, a TGI (SNB-19 CNS) of 61.1 µM and a GI50 (HCT-15 colon) of 4.6 µM. For the same molecule, the TGI (HCT-15 colon) was 20.1 µM, the GI50 (K-562 leukemia) was 2.82 µM and the TGI (K-562 leukemia) was over 100 µM. It also gave a GI50 (HCT-116 colon) of 5.35 µM, a TGI (HCT-116 colon) of 28.5 µM and a GI50 (COLO 205 colon) of 14.2 µM. The TGI (COLO 205 colon) was 32.2 µM, the GI50 (SR leukemia) was 2.83 µM and the TGI (SR leukemia) was over 100 µM. For the same molecule, the GI50 (MDA-MB-435) was 14.3 µM, the TGI (MDA-MB-435) was 27.4 µM and the GI50 (UACC-62 melanoma) was 12.5 µM. It also gave a TGI (UACC-62 melanoma) of 25.2 µM, a GI50 (TK-10 renal) of 24.6 µM and a TGI (TK-10 renal) of 61.5 µM. It also gave a GI50 (M14 melanoma) of 2.47 µM, a TGI (M14 melanoma) of 7.33 µM and a GI50 (HOP-62 NSCLC) of 15.4 µM. It also gave a TGI (HOP-62 NSCLC) of 32.8 µM, a GI50 (HL-60(TB) leukemia) of 19.8 µM and a TGI (HL-60(TB) leukemia) of 45.4 µM. It also gave a GI50 (LOX IMVI melanoma) of 12 µM, a TGI (LOX IMVI melanoma) of 25.6 µM and a GI50 (SF-539 CNS) of 12 µM. For the same molecule, the TGI (SF-539 CNS) was 24.4 µM, the GI50 (MALME-3M melanoma) was 12.1 µM and the TGI (MALME-3M melanoma) was 24.4 µM. The GI50 (PC-3 prostate) was 13.4 µM, the TGI (PC-3 prostate) was 46.1 µM and the GI50 (IGROV1 ovarian) was 12.9 µM. The TGI (IGROV1 ovarian) was 28 µM, the GI50 (U251 CNS) was 5.65 µM and the TGI (U251 CNS) was 28.6 µM. For the same molecule, the GI50 (UO-31 renal) was 10.7 µM, the TGI (UO-31 renal) was 28.7 µM and the GI50 (HOP-92 NSCLC) was 4.72 µM. For the same molecule, the TGI (HOP-92 NSCLC) was 26.1 µM, the GI50 (SW-620 colon) was 15.2 µM and the TGI (SW-620 colon) was 30.1 µM. It also gave a GI50 (ACHN renal) of 17.1 µM, a TGI (ACHN renal) of 40.2 µM and a GI50 (SNB-75 CNS) of 0.271 µM. The TGI (SNB-75 CNS) was 20.3 µM, the GI50 (NCI-H226 lung) was 10.8 µM and the TGI (NCI-H226 lung) was 23.1 µM. The GI50 (NCI/ADR-RES ovarian) was 18.9 µM, the TGI (NCI/ADR-RES ovarian) was 55.2 µM and the GI50 (MDA-MB-231 breast) was 11 µM. For the same molecule, the TGI (MDA-MB-231 breast) was 27.3 µM, the GI50 (SN12C renal) was 13.6 µM and the TGI (SN12C renal) was 37.2 µM. It also gave a GI50 (NCI-H460 lung) of 14.5 µM, a TGI (NCI-H460 lung) of 29.2 µM and a GI50 (A549 NSCLC) of 21.2 µM. It also gave a TGI (A549 NSCLC) of 97.9 µM, a GI50 (KM12 colon) of 16.9 µM and a TGI (KM12 colon) of 56.4 µM.
